In BindingDB's records for doi:10.1021/jm800369f (Amgen, 2008):

Biological target: Corticosteroid 11-beta-dehydrogenase isozyme 1
Assay: Inhibition of human recombinant 11beta-HSD1 expressed in Pichia pastoris

## O=C(Nc1cccc(C(=O)N2CCC[C@H]3CCCC[C@@H]32)c1)c1ccccc1 [N-(3-((4aR,8aS)-decahydroquinoline-1-carbonyl)phenyl)benzamide]
  IC50: 14 nM
